The values below come from US20250129078A1, “ERBB2 INHIBITORS” (Cogent Biosciences, Inc., priority 2023, published 2025).

Broadly, the IC50 is the concentration that gives 50% inhibition. Higher therefore signals weaker potency in that assay.

Each structure is given as a SMILES string. Where a name gives a salt, the structure may show the parent alone. Some results are limits rather than exact numbers.

In the assay the target is EGFR WT (Homo sapiens (Human), UniProt P00533). As to the kind of experiment: ErbB enzyme assay (CisBio HTRF-KinEASE-TK), EGFR WT. Type of assay: biochemical. Conditions: ATP at Km (25 μM), 1 h incubation. Summed up:
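Three-fold DMSO serial dilutions were added to kinase reactions and incubated 1 h at room temperature. Quench used 62.5 nM Sa-XL665 plus 0.25×TK-Ab-Cryptate in detection buffer, followed by another 1 h. Substrate phosphorylation was then measured by dual-wavelength HTRF.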
(In TR-FRET formats the signal depends on donor and acceptor labels being close together.)

Chain of EGFR WT (P00533 25-1210): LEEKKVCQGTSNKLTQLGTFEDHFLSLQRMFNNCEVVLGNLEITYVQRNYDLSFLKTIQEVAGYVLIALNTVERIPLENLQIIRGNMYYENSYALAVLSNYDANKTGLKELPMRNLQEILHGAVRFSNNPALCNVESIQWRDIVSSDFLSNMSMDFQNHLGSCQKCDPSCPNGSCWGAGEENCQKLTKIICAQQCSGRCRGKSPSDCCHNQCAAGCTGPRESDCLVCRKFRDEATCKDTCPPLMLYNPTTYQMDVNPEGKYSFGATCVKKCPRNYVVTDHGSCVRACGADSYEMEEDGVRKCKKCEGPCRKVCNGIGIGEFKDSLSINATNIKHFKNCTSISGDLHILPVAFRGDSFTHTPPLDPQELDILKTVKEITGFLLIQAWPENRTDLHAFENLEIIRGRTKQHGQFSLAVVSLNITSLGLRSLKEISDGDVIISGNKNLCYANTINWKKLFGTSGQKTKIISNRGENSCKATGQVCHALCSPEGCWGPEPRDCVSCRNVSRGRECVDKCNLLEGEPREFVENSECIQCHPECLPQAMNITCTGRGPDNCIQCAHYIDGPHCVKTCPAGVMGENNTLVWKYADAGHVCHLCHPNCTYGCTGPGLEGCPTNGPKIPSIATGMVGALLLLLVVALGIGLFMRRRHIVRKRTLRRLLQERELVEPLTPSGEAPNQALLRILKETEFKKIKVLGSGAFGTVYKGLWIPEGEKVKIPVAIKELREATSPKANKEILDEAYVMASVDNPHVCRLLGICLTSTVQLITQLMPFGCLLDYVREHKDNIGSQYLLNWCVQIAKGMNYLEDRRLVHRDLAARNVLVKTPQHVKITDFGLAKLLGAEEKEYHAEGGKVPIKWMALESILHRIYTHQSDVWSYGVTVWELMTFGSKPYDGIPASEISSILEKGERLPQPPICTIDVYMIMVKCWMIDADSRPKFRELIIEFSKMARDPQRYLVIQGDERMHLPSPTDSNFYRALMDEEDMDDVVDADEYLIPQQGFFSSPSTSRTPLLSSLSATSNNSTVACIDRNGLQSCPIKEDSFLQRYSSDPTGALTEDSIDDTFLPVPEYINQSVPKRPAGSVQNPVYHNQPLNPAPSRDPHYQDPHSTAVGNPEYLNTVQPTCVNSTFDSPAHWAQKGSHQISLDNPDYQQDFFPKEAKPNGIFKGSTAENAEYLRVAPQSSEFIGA

The compound `C=CC(=O)N1CCN(c2ccc3ncnc(Nc4cc(C)c(Oc5ccc6c(c5)nnn6C)c(F)c4)c3n2)C[C@H]1C` [Compound 255, (R)-1-(4-(4-((3-fluoro-5-methyl-4-((1-methyl-1H-benzo[d][1,2,3]triazol-5-yl)oxy)phenyl)amino)pyrido[3,2-d]pyrimidin-6-yl)-2-methylpiperazin-1-yl)prop-2-en-1-one] returned a 50% inhibitory concentration (IC50) of 50 to 100 nM.

As for `C=CC(=O)N1CCN(c2ncc3ncnc(Nc4ccc(Oc5cc(F)c6c(c5)ncn6C)c(C)c4F)c3n2)CC[C@@H]1C` [Compound 181, (S)-1-(4-(8-((2-fluoro-4-((7-fluoro-1-methyl-1H-benzo[d]imidazol-5-yl)oxy)-3-methylphenyl)amino)pyrimido[5,4-d]pyrimidin-2-y1)-7-methyl-1,4-diazepan-1-yl)prop-2-en-1-one], the 50% inhibitory concentration (IC50) was less than 50 nM.

As for `C=C(COC)C(=O)NC1(C)CCN(c2ncc3ncnc(Nc4ccc(Oc5ccc6c(c5)nnn6C)c(C)c4)c3n2)CC1` [Compound 215, 2-(methoxy-methyl)-N-(4-methyl-1-(8-((3-methyl-4-((1-methyl-1H-benzo[d][1,2,3]triazol-5-yl)oxy)phenyl)amino)pyrimido [5,4-d]pyrimidin-2-yl)piperidin-4-yl)acrylamide], the IC50 was no less than 1000 nM. With `C=CC(=O)N1CCN(c2ncc3ncnc(Nc4ccc(Oc5cc(C)c6c(c5)nnn6C)c(C)c4)c3n2)CC1` [Compound 130, 1-(4-(8-((4-((1,7-dimethyl-1H-benzo[d][1,2,3]triazol-5-yl)oxy)-3-methylphenyl)amino)pyrimido[5,4-d]pyrimidin-2-yl)piperazin-1-yl)prop-2-en-1-one] the figure was less than 50 nM; with `C=CC(=O)N1CCN(c2ccc3ncnc(Nc4ccc(Oc5ccc6c(c5)nnn6C)c(C)c4)c3n2)C[C@H]1COC` [Compound 77, (S)-1-(2-(methoxymethyl)-4-(4-((3-methyl-4-((1-methyl-1H-benzo[d][1,2,3]triazol-5-yl)oxy)phenyl)amino)pyrido[3,2-d]pyrimidin-6-yl)piperazin-1-yl)prop-2-en-1-one], less than 50 nM; with `C=CC(=O)N1CCN(c2ncc3ncnc(Nc4cc(C)c(Oc5cc(F)c6c(c5)ncn6C)cc4OC)c3n2)CC1` [Compound 38, 1-(4-(8-((4-((7-fluoro-1-methyl-1H-benzo[d]imidazol-5-y1)oxy)-2-methoxy-5-methylphenyl)amino)pyrimido[5,4-d]pyrimidin-2-yl)piperazin-1-yl)prop-2-en-1-one 2,2,2-trifluoroacetate], 100 to 500 nM. With `C=CC(=O)N1CCN(c2ccc3ncnc(Nc4c(OC)cc(Oc5cc(F)c6c(c5)ncn6C)c(C)c4F)c3n2)C[C@H]1C` [Compound 257, (R)-1-(4-(4-((2-fluoro-4-((7-fluoro-1-methyl-1H-benzo[d]imidazol-5-yl)oxy)-6-methoxy-3-methylphenyl)amino)pyrido[3,2-d]pyrimidin-6-yl)-2-methylpiperazin-1-yl)prop-2-en-1-one] the figure was less than 50 nM; with `C=CC(=O)N1CCN(c2ncc3ncnc(Nc4ccc(Oc5cc(OC)c6c(c5)nnn6C)c(C)c4)c3n2)CC1` [Compound 113, 1-(4-(8-((4-((7-methoxy-1-methyl-1H-benzo[d][1,2,3]triazol-5-yl)oxy)-3-methylphenyl)amino)pyrimido[5,4-d]pyrimidin-2-yl)piperazin-1-yl)prop-2-en-1-one], less than 50 nM. With `C=CC(=O)N1C[C@@H](N(C)c2ccc3ncnc(Nc4ccc(Oc5ccc6c(c5)nnn6C)c(C)c4F)c3n2)CC[C@@H]1C` [Compound 267, 1-((2S,5S)-5-((4-((2-fluoro-3-methyl-4-((1-methyl-1H-benzo[d][1,2,3]triazol-5-yl)oxy)phenyl)amino)pyrido[3,2-d]pyrimidin-6-yl)(methyl)amino)-2-methylpiperidin-1-yl)prop-2-en-1-one] the figure was no less than 1000 nM; with `Cc1cc(Nc2ncnc3ccc(N4CCN(C(=O)/C=C/CF)[C@H](C)C4)nc23)ccc1Oc1ccc2c(c1)nnn2C` [Compound 364, (R,E)-4-fluoro-1-(2-methyl-4-(4-((3-methyl-4-((1-methyl-1H-benzo[d][1,2,3]triazol-5-yl)oxy)phenyl)amino)pyrido[3,2-d]pyrimidin-6-yl)piperazin-1-yl)but-2-en-1-one], 100 to 500 nM; with `C=CC(=O)N1CCN(c2ncc3ncnc(Nc4ccc(Oc5cc6nnn(C)c6cc5C)c(C)c4)c3n2)CC1` [Compound 136, 1-(4-(8-((4-((1,6-dimethyl-1H-benzo[d][1,2,3]triazol-5-y1)oxy)-3-methylphenyl)amino)pyrimido[5,4-d]pyrimidin-2-yl)piperazin-1-yl)prop-2-en-1-one], 100 to 500 nM. On to `C=CC(=O)N(C)C1C2CN(c3ncc4ncnc(Nc5ccc(Oc6cc(F)c7c(c6)nnn7C)c(C)c5F)c4n3)CC21` (stereo not drawn) [Compound 68, N-(3-(8-((2-fluoro-4-((7-fluoro-1-methyl-1H-benzo[d][1,2,3]triazol-5-yl)oxy)-3-methylphenyl)amino)pyrimido[5,4-d]pyrimidin-2-yl)-3-azabicyclo[3.1.0]hexan-6-yl)-N-methylacrylamide], for which the half-inhibitory concentration (IC50) fell in the range of 50 to 100 nM. With `C=CC(=O)N1CCN(c2ccc3ncnc(Nc4ccc(Oc5cnc6c(c5)ncn6C(F)F)c(C)c4)c3n2)C[C@H]1C` [Compound 249, (R)-1-(4-(4-((4-((3-(difluoromethyl)-3H-imidazo[4,5-b]pyridin-6-yl)oxy)-3-methylphenyl)amino)pyrido[3,2-d]pyrimidin-6-yl)-2-methylpiperazin-1-yl)prop-2-en-1-one] the figure was less than 50 nM.

`Cc1cc(Nc2ncnc3ccc(N4CCN(C(=O)/C=C/C(F)F)[C@H](C)C4)nc23)ccc1Oc1ccc2c(c1)nnn2C` [Compound 368, (R,E)-4,4-difluoro-1-(2-methyl-4-(4-((3-methyl-4-((1-methyl-1H-benzo[d][1,2,3]triazol-5-yl)oxy)phenyl)amino)pyrido[3,2-d]pyrimidin-6-yl)piperazin-1-yl)but-2-en-1-one]: the half-inhibitory concentration (IC50) was in the range of 50 to 100 nM.

The compound `C=CC(=O)N1CCN(c2ncc3ncnc(Nc4ccc(Oc5ccc6c(c5)ncn6C(F)F)c(C)c4)c3n2)C[C@H]1C` [Compound 162, (R)-1-(4-(8-((4-((1-(difluoromethyl)-1H-benzo[d]imidazol-5-yl)oxy)-3-methylphenyl)amino)pyrimido[5,4-d]pyrimidin-2-y1)-2-methylpiperazin-1-yl)prop-2-en-1-one] returned an IC50 of 100 to 500 nM.

`C=C(F)C(=O)N1CCN(c2ccc3ncnc(Nc4ccc(Oc5ccc6c(c5)nnn6C)c(C)c4)c3n2)C[C@@H]1CC#N` [Compound 85, (S)-2-(1-(2-fluoroacryloyl)-4-(4-((3-methyl-4-((1-methyl-1H-benzo[d][1,2,3]triazol-5-yl)oxy)phenyl)amino)pyrido[3,2-d]pyrimidin-6-yl)piperazin-2-yl)acetonitrile] registered a 50% inhibitory concentration (IC50) of 500 to 1000 nM. With `C=C(F)C(=O)N1C2C=C(c3ccc4ncnc(Nc5ccc(Oc6ccc7c(c6)nnn7C)c(C)c5)c4n3)CC1CC2` (stereo not drawn) [Compound 411, 2-fluoro-1-(3-(4-((3-methyl-4-((1-methyl-1H-benzo[d][1,2,3]triazol-5-yl)oxy)phenyl)amino)pyrido[3,2-d]pyrimidin-6-yl)-8-azabicyclo[3.2.1]oct-2-en-8-yl)prop-2-en-1-one trifluoroacetate] the figure was no less than 1000 nM; with `C=CC(=O)N1CCN(c2ccc3ncnc(Nc4ccc(Oc5cc6nnn(C)c6cc5F)c(C)c4)c3n2)C[C@H]1C` [Compound 262, (R)-1-(4-(4-((4-((6-fluoro-1-methyl-1H-benzo[d][1,2,3]triazol-5-yl)oxy)-3-methylphenyl)amino)pyrido[3,2-d]pyrimidin-6-yl)-2-methylpiperazin-1-yl)prop-2-en-1-one], 100 to 500 nM.

`C=CC(=O)N1CCN(c2ncc3ncnc(Nc4ccc(Oc5ccc6c(c5)nnn6C)c(F)c4F)c3n2)CC1` [Compound 44, 1-(4-(8-((2,3-difluoro-4-((1-methyl-1H-benzo[d][1,2,3]triazol-5-yl)oxy)phenyl)amino)pyrimido[5,4-d]pyrimidin-2-yl)piperazin-1-yl)prop-2-en-1-one] gave an IC50 of 50 to 100 nM. As for `C=CC(=O)N1CCN(c2ncc3ncnc(Nc4ccc(Oc5ccc6c(c5)nnn6C)c(C)c4)c3n2)C[C@H]1COC` [Compound 120, (S)-1-(2-(methoxymethyl)-4-(8-((3-methyl-4-((1-methyl-1H-benzo[d][1,2,3]triazol-5-yl)oxy)phenyl)amino)pyrimido[5,4-d]pyrimidin-2-y1)piperazin-1-yl)prop-2-en-1-one], the IC50 lay within 50 to 100 nM. The result for `C=CC(=O)N[C@H]1CCN(c2ccc3ncnc(Nc4ccc(Oc5ccc6c(c5)nnn6C)c(C)c4F)c3n2)C[C@@H]1F` [Compound 280, N-((3S,4S)-3-fluoro-1-(4-((2-fluoro-3-methyl-4-((1-methyl-1H-benzo[d][1,2,3]triazol-5-yl)oxy)phenyl)amino)pyrido[3,2-d]pyrimidin-6-yl)piperidin-4-yl)acrylamide] reads 100 to 500 nM; that for `C=C1CCN(C2CCN(c3ccc4ncnc(Nc5ccc(Oc6ccc7c(c6)nnn7C)c(C)c5F)c4n3)CC2)C1=O` [Compound 241, 1-(1-(4-((2-fluoro-3-methyl-4-((1-methyl-1H-benzo[d][1,2,3]triazol-5-yl)oxy)phenyl)amino)pyrido[3,2-d]pyrimidin-6-yl)piperidin-4-yl)-3-methylenepyrrolidin-2-one], no less than 1000 nM; that for `C=CC(=O)N1CCN(c2ccc3ncnc(Nc4ccc(Oc5cc(F)c6c(c5)nnn6C)c(C)c4)c3n2)CC1` [Compound 97, 1-(4-(4-((4-((7-fluoro-1-methyl-1H-benzo[d][1,2,3]triazol-5-yl)oxy)-3-methylphenyl)amino)pyrido[3,2-d]pyrimidin-6-yl)piperazin-1-yl)prop-2-en-1-one], less than 50 nM.

`C=C(F)C(=O)N1CC[C@H](N(C)c2ccc3ncnc(Nc4ccc(Oc5ccc6c(c5)nnn6C)c(C)c4F)c3n2)C1` [Compound 365, (S)-2-fluoro-1-(3-((4-((2-fluoro-3-methyl-4-((1-methyl-1H-benzo[d][1,2,3]triazol-5-yl)oxy)phenyl)amino)pyrido[3,2-d]pyrimidin-6-yl)(methyl)amino)pyrrolidin-1-yl)prop-2-en-1-one]: the concentration for half-maximal inhibition (IC50) was no less than 1000 nM.
